# Reference: ChEMBL document CHEMBL5661943, “ASAP - In vitro antiviral effect” (2024)
# Tests used:
# Zika virus [1] = test: (§1) Functional CPE-based assay to measure dose dependent changes in antiviral-drug inhibitory efficacy against Zika virus MR766 in Vero E6 miRFP670 cells (cotreated with P-gp inhibitor, CP100356). Cells are treated with antiviral candidates that are serially diluted. EC50 is reported via analysis of MTS assay as a readout of CPE. The assay has been performed by KU Leuven.; type: organism-based, Chlorocebus sabaeus, Vero C1008; details: Zika virus; for EC90: P-gp concentration 500 nM, P-gp inhibitor CP100356
# dengue virus type 2 = test: Functional assay to measure dose dependent changes in antiviral-drug inhibitory efficacy against Dengue virus type 2 New Guinea C in Vero E6 miRFP670 cells (cotreated with P-gp inhibitor, CP100356). Cells are treated with antiviral candidates that are serially diluted, following infection, cells are fixed. EC50 is reported via analysis of fluorescence intensity using high-content imager. The …; type: organism-based, Chlorocebus sabaeus, Vero C1008; details: for EC90: P-gp concentration 500 nM, P-gp inhibitor CP100356
# Zika virus [2] = test: as §1, with “cells.” for “cells (cotreated with P-gp inhibitor, CP100356).”; type: organism-based, Chlorocebus sabaeus, Vero C1008
# Zika virus [3] = test: EC50 is reported via analysis of immunofluorescence staining. The assay has been performed by Icahn School of Medicine at Mount Sinai.; type: functional, organism-based, Chlorocebus sabaeus, VeroE6/TMPRSS2; details: Zika virus, VeroE6/TMPRSS2; for EC90: Baseline response 0 %, P-gp concentration 2 uM, P-gp inhibitor Elacidar
structure (smiles),measurement,setting,value
O=C(O)c1cc2cc(-c3cc(Cl)cc(C4CC4)c3)ccc2[nH]1,EC50,Zika virus [1]; Vero C1008,> 50 µM
same,EC90,"Zika virus [1]; Vero C1008, Baseline response 0 %, Hill slope 0.262, Maximum measured 7.755 %, Maximum response 100 %, Minimum measured -1.169 %, R squared 0.013",> 50 µM
same,EC50,"dengue virus type 2; Dengue virus, Vero C1008",45.8 µM
same,EC90,"dengue virus type 2; Dengue virus, Vero C1008, Baseline response 0 %, Hill slope -21.982, Maximum measured 163.66 %, Maximum response 100 %, Minimum measured 12.537 %, R squared 0.152",> 50 µM
same,EC50,"Zika virus [2]; Zika virus, Vero C1008",> 50 µM
same,EC90,"Zika virus [2]; Zika virus, Vero C1008, Baseline response 0 %, Hill slope 0.633, Maximum measured 10.894 %, Maximum response 100 %, Minimum measured 0.566 %, R squared 0.67",> 50 µM
NCCc1ccc([C@H]2C[C@@H]2c2cc(Cl)cc(NC(=O)OCc3ccccc3)c2)cc1,EC50,Zika virus [1]; Vero C1008,> 50 µM
same,EC90,"Zika virus [1]; Vero C1008, Maximum measured 6.997 %, Minimum measured -5.737 %",> 50 µM
same,EC50,"dengue virus type 2; Dengue virus, Vero C1008",> 3.12 µM
same,EC90,"dengue virus type 2; Dengue virus, Vero C1008, Maximum measured 120.903 %, Minimum measured 100.357 %",> 3.12 µM
same,EC90,"dengue virus type 2; Dengue virus, Vero C1008, Maximum measured 221.095 %, Minimum measured 80.639 %",> 6.25 µM
same,EC50,dengue virus type 2; vero c1008,> 6.25 µM
same,EC50,"Zika virus [2]; Zika virus, Vero C1008",> 50 µM
same,EC90,"Zika virus [2]; Zika virus, Vero C1008, Maximum measured 1.279 %, Minimum measured -5.481 %",> 50 µM
N#C[C@H](Nc1ccc2c(c1)CNC2)c1cc(Cl)cc2[nH]ncc12,EC50,"dengue virus type 2; Dengue virus, Vero C1008",> 50 µM
same,EC90,"dengue virus type 2; Dengue virus, Vero C1008, Maximum measured 117.716 %, Minimum measured 103.927 %",> 50 µM
same,EC90,"dengue virus type 2; Dengue virus, Vero C1008, Maximum measured 161.231 %, Minimum measured 110.618 %",> 50 µM
same,EC50,Zika virus [3],7.2 µM
same,EC90,"Zika virus [3]; Hill slope -1.174, Maximum measured 85.278 %, Maximum response 50 %, Minimum measured 14.695 %, R squared 0.497",> 16.7 µM
same,EC50,"Zika virus [2]; Zika virus, Vero C1008",42.5 µM
same,EC90,"Zika virus [2]; Zika virus, Vero C1008, Baseline response 0 %, Hill slope 4.778, Maximum measured 68.413 %, Maximum response 100 %, Minimum measured -0.525 %, R squared 0.993",> 50 µM
same,EC90,"Zika virus [2]; Zika virus, Vero C1008, Maximum measured -1.389 %, Minimum measured -3.372 %",> 50 µM
same,EC50,Zika virus [2]; vero c1008,> 50 µM
CCc1cc(Br)cc2c(Cc3ccc(-c4nnn[nH]4)cc3)c[nH]c12,EC50,Zika virus [1]; Vero C1008,> 50 µM
same,EC90,"Zika virus [1]; Vero C1008, Maximum measured 2.453 %, Minimum measured -6.07 %",> 50 µM
same,EC90,"dengue virus type 2; Baseline response 0 %, Hill slope -20.83, Maximum measured 154.882 %, Maximum response 100 %, Minimum measured 18.569 %, R squared 0.389",> 25 µM
same,EC50,"dengue virus type 2; Dengue virus, Vero C1008",24.8 µM
same,EC90,"dengue virus type 2; Dengue virus, Vero C1008, Baseline response 0 %, Hill slope -25.951, Maximum measured 114.444 %, Maximum response 100 %, Minimum measured 0.23 %, R squared 0.943",26.9 µM
same,EC50,dengue virus type 2; vero c1008,23.3 µM
same,EC50,"Zika virus [2]; Zika virus, Vero C1008",> 50 µM
same,EC90,"Zika virus [2]; Zika virus, Vero C1008, Baseline response 0 %, Hill slope -0.347, Maximum measured 5.052 %, Maximum response 100 %, Minimum measured -3.467 %, R squared 0.177",> 50 µM
same,EC90,"Zika virus [2]; Zika virus, Vero C1008, Maximum measured -3.488 %, Minimum measured -8.239 %",> 50 µM
CCc1nc2c(C(=O)Nc3ccc4c(c3)CNC4)cc(Br)cc2[nH]1,EC50,"dengue virus type 2; Dengue virus, Vero C1008",> 50 µM
same,EC90,"dengue virus type 2; Dengue virus, Vero C1008, Maximum measured 122.691 %, Minimum measured 98.084 %",> 50 µM
same,EC50,Zika virus [3],> 5.56 µM
same,EC90,"Zika virus [3]; Hill slope 0.058, Maximum measured 88.326 %, Maximum response 100 %, Minimum measured 53.216 %, R squared 0.024",> 5.56 µM
same,EC50,"Zika virus [2]; Zika virus, Vero C1008",> 50 µM
same,EC90,"Zika virus [2]; Zika virus, Vero C1008, Baseline response 0 %, Hill slope 0.303, Maximum measured 9.479 %, Maximum response 100 %, Minimum measured 2.16 %, R squared 0.852",> 50 µM
O=C(Nc1cc(Cl)cc(-c2ccc3cc(C(=O)O)[nH]c3c2)c1)OCc1ccccc1,EC50,Zika virus [1]; Vero C1008,> 50 µM
same,EC90,"Zika virus [1]; Vero C1008, Baseline response 0 %, Hill slope 0.219, Maximum measured 11.412 %, Maximum response 100 %, Minimum measured -1.306 %, R squared 0.087",> 50 µM
same,EC50,"dengue virus type 2; Dengue virus, Vero C1008",27.6 µM
same,EC90,"dengue virus type 2; Dengue virus, Vero C1008, Baseline response 0 %, Hill slope -2.588, Maximum measured 127.292 %, Maximum response 100 %, Minimum measured 18.339 %, R squared 0.622",> 50 µM
same,EC50,"Zika virus [2]; Zika virus, Vero C1008",> 50 µM
same,EC90,"Zika virus [2]; Zika virus, Vero C1008, Maximum measured -0.377 %, Minimum measured -2.566 %",> 50 µM
